What all share (assay): MIC, two-fold agar dilution (CLSI), clinical isolates
Common to all, as to format: cell-based

For assay [1], the system named is methicillin-resistant Staphylococcus aureus (MRSA). Conditions: for Measured MIC: Table 8, strain and unit inferred, MRSA. An excerpt:
(§1) 1. The invention adopts the two-fold agar dilution method recommended by the operating procedure of antimicrobial susceptibility testing set by American Clinical and Laboratory Standards Institute (CLSI) to determine the Minimum Inhibitory Concentration (MIC) of the test samples against the tested strains.

Assay [2] relates to Enterococcus faecalis (EFA).
Source text: as §1

The test system of assay [3] is Enterococcus faecium (EFM).
Source text: as §1

Assay [4] relates to Escherichia coli (including ESBLs, non-ESBLs).
Source text: as §1

Assay [5] concerns Moraxella catarrhalis (BCA).
Source text: as §1

Assay [6] deals with Streptococcus pneoumoniae (SPN).
Source text: as §1

The test system of assay [7] is methicillin-resistant Staphylococcus epidermidis (MRSE).
Source text: as §1

The test system of assay [8] is methicillin-sensitive Staphylococcus aureus (MSSA).
Source text: as §1

Assay [9] relates to methicillin-sensitive Staphylococcus epidermidis (MSSE).
Source text: as §1

As to `CCCC[C@H](CN(O)C=O)C(=O)N1CCC[C@H]1C(=O)Nc1ccc(F)c[n+]1[O-]` [A, reference compound], the Measured MIC in assay [1] is 0.5 µg/mL.
On the same count and under the same terms, for `CCCC[C@H](CN(O)C=O)C(=O)N1CC=C[C@H]1C(=O)Nc1ccc(F)c[n+]1[O-]` [B, reference compound] the value was 1 µg/mL; for `C=C1C[C@@H](C(=O)Nc2ccc(F)c[n+]2[O-])N(C(=O)[C@H](CCCC)CN(O)C=O)C1` [C, reference compound], 0.5 µg/mL; for `CCCC[C@H](CN(O)C=O)C(=O)N1CC2(CC2)C[C@H]1C(=O)Nc1ccc(F)c[n+]1[O-]` [D], 0.125 µg/mL.
Take `C[C@H]1COc2c(N3CCN(C)CC3)c(F)cc3c(=O)c(C(=O)O)cn1c23` [levofloxacin, reference compound]: the Anti-bacterial activity (MIC) was over 128 µg/mL in assay [2] (strain EFA 15-1); over 128 µg/mL in [2] (strain EFA 15-2); 1 µg/mL in [2] (strain EFA 15-4); 1 µg/mL in [2] (strain EFA 15-5); over 128 µg/mL in assay [2] (strain EFA 15-6); 128 µg/mL in assay [2] (strain EFA 15-9). Moreover, the Anti-bacterial activity (MIC) in [3] (strain EFM 15-1) was over 128 µg/mL; in assay [3] (strain EFM 15-2) it was over 128 µg/mL; in [3] (strain EFM 15-3), over 128 µg/mL; in [3] (strain EFM 15-4) it was over 128 µg/mL; in assay [3] (strain EFM 15-5), over 128 µg/mL; in assay [3] (strain EFM 15-6), 128 µg/mL. Besides, the Anti-bacterial activity (MIC) was 64 µg/mL in assay [4] (strain ECO+ 15-2); 1 µg/mL in [4] (strain ECO+ 15-4); 0.03 µg/mL in assay [4] (strain ECO− 15-1); 128 µg/mL in [4] (strain ECO− 15-2); 0.06 µg/mL in assay [4] (strain ECO− 15-3); 0.06 µg/mL in [4] (strain ECO− 15-4). Also, the Anti-bacterial activity (MIC) is 1 µg/mL in assay [5] (strain BCA 14-1); 4 µg/mL in [5] (strain BCA 14-5); 8 µg/mL in assay [5] (strain BCA 14-6); 1 µg/mL in [5] (strain BCA 14-8); 1 µg/mL in [6] (strain SPN 16-2); 1 µg/mL in assay [6] (strain SPN 16-4). The Anti-bacterial activity (MIC) is 64 µg/mL in assay [1] (strain MRSA 15-1); over 128 µg/mL in assay [1] (strain MRSA 15-2); over 128 µg/mL in assay [1] (strain MRSA 15-3); over 128 µg/mL in assay [1] (strain MRSA 15-4); 16 µg/mL in assay [7] (strain MRSE 15-1); 16 µg/mL in assay [7] (strain MRSE 15-2). The Anti-bacterial activity (MIC) in assay [7] (strain MRSE 15-3) came out at 16 µg/mL; in assay [7] (strain MRSE 15-7), 16 µg/mL; in [8] (strain MSSA 15-3) it was 16 µg/mL; in [8] (strain MSSA 15-4), 0.5 µg/mL; in assay [8] (strain MSSA 15-5), 64 µg/mL; in assay [8] (strain MSSA 15-6), 16 µg/mL. Also, the Anti-bacterial activity (MIC) in [9] (strain MSSE 15-3) was determined as 0.5 µg/mL; in assay [9] (strain MSSE 15-4) it was 0.5 µg/mL; in assay [9] (strain MSSE 15-5), 0.5 µg/mL; in [9] (strain MSSE 15-6) it was 0.25 µg/mL.

Values taken from US10738028B2, “Spiro three-membered ring, spiro five-membered ring peptide deformylase inhibitor and use thereof in antibacteria and anti-tumor” (priority 2016, dated 2020).
